# Data taken from PubChem BioAssay AID1919002 (Molecular Pharmacology Branch, DTP, NCI, 2023).
# pIC50: −log10 of the molar value.
# System: 743489-274-T-PDC complex spheroid growth
# Experiment: Anticancer human tumor 743489-274-T-PDC patient-derived renal cell carcinoma cell line growth inhibition [AhR]
# Details: for pIC50: curve of first compound; for viability, T/C: stronger effect = lower value
# Outline: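 Spheroids combined tumor cells with HUVEC endothelial cells and human MSCs as stroma. AhR antagonists were paired with standard or investigational drugs, each dosed in half-log steps down from near clinical Cmax, or from 10 microM where Cmax was unknown.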
# [1] = second compound 0.1 µM, first compound 0.0316 µM
# [2] = second compound 0.1 µM, first compound 0.1 µM
# [3] = second compound 0.1 µM, first compound 0.316 µM
# [4] = second compound 0.1 µM, first compound 1 µM
# [5] = second compound 0.1 µM, first compound 3.16 µM
# [6] = second compound 0.1 µM, first compound 10 µM
# [7] = second compound 0.316 µM, first compound 0.0316 µM
# [8] = second compound 0.316 µM, first compound 0.1 µM
# [9] = second compound 0.316 µM, first compound 0.316 µM
# [10] = second compound 0.316 µM, first compound 1 µM
# [11] = second compound 0.316 µM, first compound 3.16 µM
# [12] = second compound 0.316 µM, first compound 10 µM
# [13] = second compound 1 µM, first compound 0.0316 µM
# [14] = second compound 1 µM, first compound 0.1 µM
# [15] = second compound 1 µM, first compound 0.316 µM
# [16] = second compound 1 µM, first compound 1 µM
# [17] = second compound 1 µM, first compound 3.16 µM
# [18] = second compound 1 µM, first compound 10 µM
# [19] = second compound 3.16 µM, first compound 0.0316 µM
# [20] = second compound 3.16 µM, first compound 0.1 µM
# [21] = second compound 3.16 µM, first compound 0.316 µM
# [22] = second compound 3.16 µM, first compound 1 µM
# [23] = second compound 3.16 µM, first compound 3.16 µM
# [24] = second compound 3.16 µM, first compound 10 µM
# [25] = second compound 10 µM, first compound 0.0316 µM
# [26] = second compound 10 µM, first compound 0.1 µM
# [27] = second compound 10 µM, first compound 0.316 µM
# [28] = second compound 10 µM, first compound 1 µM
# [29] = second compound 10 µM, first compound 3.16 µM
# [30] = second compound 10 µM, first compound 10 µM
# 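Note: spheroids exposed to agents for 7 days before readout.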
# 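Throughout, for viability, T/C: 100% = DMSO vehicle control wells.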
structure (smiles),measurement,setting,value
CC(C)CC(NC(=O)C(Cc1ccccc1)NC(=O)c1cnccn1)B(O)O (stereo not given) + Cc1cncc(-c2nc(NCCc3c[nH]c4ccccc34)c3ncn(C(C)C)c3n2)c1,pIC50,second compound 0.1 µM,7.31
same,pIC50,second compound 0.316 µM,7.57
same,pIC50,second compound 1 µM,7.68
same,pIC50,second compound 3.16 µM,7.68
same,pIC50,second compound 10 µM,7.86
same,"viability, T/C","second compound 0.1 µM, first compound 0.000949 µM",94.6%
same,"viability, T/C","second compound 0.1 µM, first compound 0.003 µM",96.3%
same,"viability, T/C","second compound 0.1 µM, first compound 0.00949 µM",106%
same,"viability, T/C","second compound 0.1 µM, first compound 0.03 µM",75.8%
same,"viability, T/C","second compound 0.1 µM, first compound 0.0949 µM",16.6%
same,"viability, T/C","second compound 0.1 µM, first compound 0.3 µM",11.4%
same,"viability, T/C","second compound 0.316 µM, first compound 0.000949 µM",98.8%
same,"viability, T/C","second compound 0.316 µM, first compound 0.003 µM",96.9%
same,"viability, T/C","second compound 0.316 µM, first compound 0.00949 µM",108%
same,"viability, T/C","second compound 0.316 µM, first compound 0.03 µM",45.2%
same,"viability, T/C","second compound 0.316 µM, first compound 0.0949 µM",18.4%
same,"viability, T/C","second compound 0.316 µM, first compound 0.3 µM",10.7%
same,"viability, T/C","second compound 1 µM, first compound 0.000949 µM",99.8%
same,"viability, T/C","second compound 1 µM, first compound 0.003 µM",103%
same,"viability, T/C","second compound 1 µM, first compound 0.00949 µM",93%
same,"viability, T/C","second compound 1 µM, first compound 0.03 µM",30.3%
same,"viability, T/C","second compound 1 µM, first compound 0.0949 µM",17.6%
same,"viability, T/C","second compound 1 µM, first compound 0.3 µM",8.63%
same,"viability, T/C","second compound 3.16 µM, first compound 0.000949 µM",107%
same,"viability, T/C","second compound 3.16 µM, first compound 0.003 µM",107%
same,"viability, T/C","second compound 3.16 µM, first compound 0.00949 µM",102%
same,"viability, T/C","second compound 3.16 µM, first compound 0.03 µM",25.9%
same,"viability, T/C","second compound 3.16 µM, first compound 0.0949 µM",13.1%
same,"viability, T/C","second compound 3.16 µM, first compound 0.3 µM",4.96%
same,"viability, T/C","second compound 10 µM, first compound 0.000949 µM",124%
same,"viability, T/C","second compound 10 µM, first compound 0.003 µM",113%
same,"viability, T/C","second compound 10 µM, first compound 0.00949 µM",73.2%
same,"viability, T/C","second compound 10 µM, first compound 0.03 µM",2.6%
same,"viability, T/C","second compound 10 µM, first compound 0.0949 µM",1.14%
same,"viability, T/C","second compound 10 µM, first compound 0.3 µM",0.75%
COc1cc(Nc2ncc3c(n2)-c2ccc(Cl)cc2C(c2c(F)cccc2OC)=NC3)ccc1C(=O)O + Cc1cncc(-c2nc(NCCc3c[nH]c4ccccc34)c3ncn(C(C)C)c3n2)c1,pIC50,second compound 0.1 µM,< 5.00
same,pIC50,second compound 0.316 µM,< 5.00
same,pIC50,second compound 1 µM,< 5.00
same,pIC50,second compound 3.16 µM,< 5.00
same,pIC50,second compound 10 µM,< 5.00
same,"viability, T/C",[1],94.2%
same,"viability, T/C",[2],103%
same,"viability, T/C",[3],84.6%
same,"viability, T/C",[4],99.8%
same,"viability, T/C",[5],93.7%
same,"viability, T/C",[6],91.8%
same,"viability, T/C",[7],97.7%
same,"viability, T/C",[8],85%
same,"viability, T/C",[9],94%
same,"viability, T/C",[10],85.1%
same,"viability, T/C",[11],85%
same,"viability, T/C",[12],78.9%
same,"viability, T/C",[13],99%
same,"viability, T/C",[14],95.2%
same,"viability, T/C",[15],95.9%
same,"viability, T/C",[16],86%
same,"viability, T/C",[17],95.3%
same,"viability, T/C",[18],82.4%
same,"viability, T/C",[19],107%
same,"viability, T/C",[20],98%
same,"viability, T/C",[21],96.1%
same,"viability, T/C",[22],107%
same,"viability, T/C",[23],90.1%
same,"viability, T/C",[24],98.9%
same,"viability, T/C",[25],119%
same,"viability, T/C",[26],126%
same,"viability, T/C",[27],101%
same,"viability, T/C",[28],76.8%
same,"viability, T/C",[29],79.4%
same,"viability, T/C",[30],85.8%
NS(=O)(=O)OCC1CC(n2ccc3c(NC4CCc5ccccc54)ncnc32)CC1O (stereo not given) + Cc1cncc(-c2nc(NCCc3c[nH]c4ccccc34)c3ncn(C(C)C)c3n2)c1,pIC50,second compound 0.1 µM,< 5.00
same,pIC50,second compound 0.316 µM,< 5.00
same,pIC50,second compound 1 µM,< 5.00
same,pIC50,second compound 3.16 µM,< 5.00
same,pIC50,second compound 10 µM,< 5.00
same,"viability, T/C",[1],105%
same,"viability, T/C",[2],98.2%
same,"viability, T/C",[3],99.8%
same,"viability, T/C",[4],112%
same,"viability, T/C",[5],128%
same,"viability, T/C",[6],154%
same,"viability, T/C",[7],93.2%
same,"viability, T/C",[8],92.7%
same,"viability, T/C",[9],110%
same,"viability, T/C",[10],125%
same,"viability, T/C",[11],136%
same,"viability, T/C",[12],139%
same,"viability, T/C",[13],96.8%
same,"viability, T/C",[14],98.7%
same,"viability, T/C",[15],116%
same,"viability, T/C",[16],133%
same,"viability, T/C",[17],149%
same,"viability, T/C",[18],134%
same,"viability, T/C",[19],119%
same,"viability, T/C",[20],114%
same,"viability, T/C",[21],119%
same,"viability, T/C",[22],136%
same,"viability, T/C",[23],152%
same,"viability, T/C",[24],139%
same,"viability, T/C",[25],114%
same,"viability, T/C",[26],127%
same,"viability, T/C",[27],106%
same,"viability, T/C",[28],103%
same,"viability, T/C",[29],118%
same,"viability, T/C",[30],123%
O=C(C=Cc1cccc(S(=O)(=O)Nc2ccccc2)c1)NO + Cc1cncc(-c2nc(NCCc3c[nH]c4ccccc34)c3ncn(C(C)C)c3n2)c1,pIC50,second compound 0.1 µM,< 5.00
same,pIC50,second compound 0.316 µM,< 5.00
same,pIC50,second compound 1 µM,< 5.00
same,pIC50,second compound 3.16 µM,< 5.00
same,pIC50,second compound 10 µM,< 5.00
same,"viability, T/C",[1],88.3%
same,"viability, T/C",[2],87.7%
same,"viability, T/C",[3],85.9%
same,"viability, T/C",[4],77.5%
same,"viability, T/C",[5],69.1%
same,"viability, T/C",[6],51.4%
same,"viability, T/C",[7],91.6%
same,"viability, T/C",[8],95%
same,"viability, T/C",[9],82.4%
same,"viability, T/C",[10],72.6%
same,"viability, T/C",[11],66.6%
same,"viability, T/C",[12],52.4%
same,"viability, T/C",[13],98.1%
same,"viability, T/C",[14],94.3%
same,"viability, T/C",[15],88.4%
same,"viability, T/C",[16],70.6%
same,"viability, T/C",[17],67.5%
same,"viability, T/C",[18],52.7%
same,"viability, T/C",[19],102%
same,"viability, T/C",[20],104%
same,"viability, T/C",[21],94%
same,"viability, T/C",[22],82%
same,"viability, T/C",[23],73.1%
same,"viability, T/C",[24],54.6%
same,"viability, T/C",[25],114%
same,"viability, T/C",[26],118%
same,"viability, T/C",[27],120%
same,"viability, T/C",[28],102%
same,"viability, T/C",[29],78%
same,"viability, T/C",[30],68.1%
